In ChEMBL document CHEMBL5131471, “Design, synthesis and mechanism studies of novel dual PARP1/BRD4 inhibitors against pancreatic cancer” (Eur J Med Chem, 2022):
Activity calls are given as the source filed them. No cut-off for these calls is given here.

Experiments:
SW1990 [1] = experiment: Effect on HEXIM1 gene expression in human SW1990 cells at 1 uM in presence of Olaparib by Q-PCR analysis; type: functional, cell-based
SW1990 [2] = experiment: Effect on CDC25A gene expression in human SW1990 cells at 4 uM by Q-PCR analysis; type: functional, cell-based
SW1990 [3] = experiment: Effect on c-Myc gene expression in human SW1990 cells at 4 uM by Q-PCR analysis; type: functional, cell-based
SW1990 [4] = experiment: Effect on c-Myc gene expression in human SW1990 cells at 1 uM in presence of Olaparib by Q-PCR analysis; type: functional, cell-based
SW1990 [5] = experiment: Effect on TOPBP1 gene expression in human SW1990 cells at 4 uM by Q-PCR analysis; type: functional, cell-based
[6] = Toxicity in nude mouse xenografted with human SW1990 cells assessed as spleen damage at 15 mg/kg, ip administered for 28 days in presence of 45 mg/kg Olaparib by H and E staining based fluorescence microscopic analysis; type: organism-based; conditions: in vivo, 672 h, time 28 day
SW1990 [7] = experiment: Effect on CDK1 gene expression in human SW1990 cells at 4 uM by Q-PCR analysis; type: functional, cell-based
SW1990 [8] = experiment: Effect on CCND1 gene expression in human SW1990 cells at 1 uM in presence of Olaparib by Q-PCR analysis; type: functional, cell-based
SW1990 [9] = experiment: Induction of DNA damage in human SW1990 cells assessed as increase in tail DNA at 4 uM incubated for 4 days by comet assay; type: functional, cell-based; conditions: time 4.0 day
SW1990 [10] = experiment: Effect on ALDH1A1 gene expression in human SW1990 cells at 4 uM by Q-PCR analysis; type: functional, cell-based
SW1990 [11] = experiment: Effect on BRCA2 gene expression in human SW1990 cells at 1 uM in presence of Olaparib by Q-PCR analysis; type: functional, cell-based
SW1990 [12] = experiment: Effect on MDC1 gene expression in human SW1990 cells at 1 uM in presence of Olaparib by Q-PCR analysis; type: functional, cell-based
Mus musculus [13] = experiment: Upregulation of BRD4 expression in nude mouse xenografted with human SW1990 cells at 45 mg/kg, ip measured after 28 days by DAPI staining based laser confocal microscopic analysis; type: functional, organism-based; conditions: time 28.0 day
SW1990 [14] = experiment: Downregulation of Ki67 expression in human SW1990 cells at 45 mg/kg, ip measured after 28 days by immuno histochemical staining based fluorescence microscopic analysis; type: functional, organism-based; conditions: time 28.0 day
SW1990 [15] = experiment: Effect on BRCA2 gene expression in human SW1990 cells at 6 uM by Q-PCR analysis; type: functional, cell-based
SW1990 [16] = experiment: Upregulation of CDC25B expression in human SW1990 cells at 6 uM measured after 4 days by Western blot analysis; type: functional, cell-based; conditions: time 4.0 day
SW1990 [17] = experiment: Induction of Rad51 accumulation in nucleus of human SW1990 cells at 6 uM measured after 4 days by Western blot analysis; type: functional, cell-based; conditions: time 4.0 day
SW1990 [18] = experiment: Induction of apoptosis in human SW1990 cells assessed as late apoptotic cells at 6 uM measured after 4 days by Annexin V-FITC and propidium iodide staining based flow cytometry (reference value: 7.23%); type: functional; conditions: time 4 day
SW1990 [19] = experiment: Induction of apoptosis in human SW1990 cells assessed as early apoptotic cells at 6 uM measured after 4 days by Annexin V-FITC and propidium iodide staining based flow cytometry (reference value: 1.62%); type: functional; conditions: time 4 day
SW1990 [20] = experiment: Upregulation of CDK1 expression in human SW1990 cells at 6 uM measured after 4 days by Western blot analysis; type: functional, cell-based; conditions: time 4.0 day
SW1990 [21] = experiment: Induction of apoptosis in human SW1990 cells assessed as necrotic cells at 6 uM measured after 4 days by Annexin V-FITC and propidium iodide staining based flow cytometry (reference value: 2.45%); type: functional; conditions: time 4 day
Mus musculus [22] = experiment: Upregulation of CCNB1 expression in nude mouse xenografted with human SW1990 cells at 45 mg/kg, ip measured after 4 days by Western blot analysis; type: functional, organism-based; conditions: time 4.0 day
SW1990 [23] = experiment: Effect on CDC25A gene expression in human SW1990 cells at 6 uM by Q-PCR analysis; type: functional, cell-based
SW1990 [24] = experiment: Effect on CDC25B gene expression in human SW1990 cells at 6 uM by Q-PCR analysis; type: functional, cell-based
Mus musculus [25] = experiment: Upregulation of CDK6 expression in nude mouse xenografted with human SW1990 cells at 45 mg/kg, ip measured after 4 days by Western blot analysis; type: functional, organism-based; conditions: time 4.0 day
SW1990 [26] = experiment: Effect on FOXM1 gene expression in human SW1990 cells at 6 uM by Q-PCR analysis; type: functional, cell-based
SW1990 [27] = experiment: Upregulation of CCNB1 expression in human SW1990 cells at 6 uM measured after 4 days by Western blot analysis; type: functional, cell-based; conditions: time 4.0 day
SW1990 [28] = experiment: Upregulation of BRD4 expression in human SW1990 cells at 6 uM measured after 4 days by Western blot analysis; type: functional, cell-based; conditions: time 4.0 day
[29] = Toxicity in nude mouse xenografted with human SW1990 cells assessed as spleen damage at 45 mg/kg, ip administered for 28 days by H and E staining based fluorescence microscopic analysis; type: organism-based; conditions: in vivo, 672 h, time 28 day
Mus musculus [30] = experiment: Inhibition of CDK1 expression in nude mouse xenografted with human SW1990 cells at 30 mg/kg, ip measured after 4 days by Western blot analysis; type: functional, organism-based; conditions: time 4.0 day
Mus musculus [31] = experiment: Inhibition of CDK1 expression in nude mouse xenografted with human SW1990 cells at 30 mg/kg, ip measured after 4 days by Q-PCR analysis; type: functional, organism-based; conditions: time 4.0 day
SW1990 [32] = experiment: Induction of cell cycle arrest in human SW1990 cells assessed as accumulation of cells at G0/G1 phase at 2 uM incubated for 4 days by propidium iodide staining based flow cytometry (reference value: 64.79%); type: functional; conditions: time 4 day
Mus musculus [33] = experiment: Inhibition of CDC25B expression in nude mouse xenografted with human SW1990 cells at 30 mg/kg, ip measured after 4 days by Western blot analysis; type: functional, organism-based; conditions: time 4.0 day
SW1990 [34] = experiment: Induction of cell cycle arrest in human SW1990 cells assessed as accumulation of cells at G2/M phase at 2 uM incubated for 4 days by propidium iodide staining based flow cytometry (reference value: 5.89%); type: functional; conditions: time 4 day
SW1990 [35] = experiment: Induction of apoptosis in human SW1990 cells assessed as necrotic cells at 1 uM measured after 4 days by Annexin V-FITC and propidium iodide staining based flow cytometry (reference value: 2.45%); type: functional; conditions: time 4 day
SW1990 [36] = experiment: Induction of cell cycle arrest in human SW1990 cells assessed as accumulation of cells at S phase at 2 uM incubated for 4 days by propidium iodide staining based flow cytometry (reference value: 29.32%); type: functional; conditions: time 4 day
SW1990 [37] = experiment: Inhibition of colony formation in human SW1990 cells at 1 uM after 14 days by crystal violet staining based microscopic analysis; type: functional, cell-based; conditions: time 14.0 day
SW1990 [38] = experiment: Effect on CCND1 gene expression in human SW1990 cells at 1 to 2 uM by Q-PCR analysis; type: functional, cell-based; conditions: dose 1-2 µM
SW1990 [39] = experiment: Effect on CCNB1 gene expression in human SW1990 cells at 1 to 2 uM by Q-PCR analysis; type: functional, cell-based; conditions: dose 1-2 µM
SW1990 [40] = experiment: Inhibition of CDC25B protein expression in human SW1990 cells at 1 to 2 uM measured after 4 days by Western blot analysis; type: functional, cell-based; conditions: dose 1-2 µM, time 4.0 day
SW1990 [41] = experiment: Induction of cell cycle arrest in human SW1990 cells assessed as accumulation of cells at G0/G1 phase at 1 uM incubated for 4 days by propidium iodide staining based flow cytometry (reference value: 64.79%); type: functional; conditions: time 4 day

SMILES: Cc1sc2c(c1C)C(c1ccc(Cl)cc1)=N[C@@H](CC(=O)OC(C)(C)C)c1nnc(C)n1-2
- Activity (SW1990 [1]): Active
- Activity (SW1990 [2]): Active
- Activity (SW1990 [3]): Active
- Activity (SW1990 [4]): Active
- Activity (SW1990 [5]): Active
- Activity [6]: Non-Toxic
- Activity (SW1990 [7]): Active
- Activity (SW1990 [8]): Active
- Activity (SW1990 [9]): Active
- Activity (SW1990 [10]): Active
- Activity (SW1990 [11]): Active
- Activity (SW1990 [12]): Active

SMILES: O=C(c1cc(Cc2n[nH]c(=O)c3ccccc23)ccc1F)N1CCN(C(=O)C2CC2)CC1 [OLAPARIB]
- Activity (Mus musculus [13]): Active
- Activity (SW1990 [14]): Active
- Activity (SW1990 [15]): Active
- Activity (SW1990 [16]): Active
- Activity (SW1990 [17]): Active
- Activity (SW1990 [18]): 22.9%
- Activity (SW1990 [19]): 1.84%
- Activity (SW1990 [20]): Active
- Activity (SW1990 [21]): 1.66%
- Activity (Mus musculus [22]): Active
- Activity (SW1990 [23]): Active
- Activity (SW1990 [24]): Active
- Activity (Mus musculus [25]): Active
- Activity (SW1990 [26]): Active
- Activity (SW1990 [27]): Active
- Activity (SW1990 [28]): Active
- Activity [29]: Non-Toxic

SMILES: Cc1noc(C)c1-c1ccc2c(c1)C(c1ccccc1)N(Cc1nc3c(C(N)=O)cccc3[nH]1)C(=O)N2C (stereo unspecified)
- inhibition (Mus musculus [30]): Active
- inhibition (Mus musculus [31]): Active
- Activity (SW1990 [32]): 78.17%
- inhibition (Mus musculus [33]): Active
- Activity (SW1990 [34]): 12.83%
- Activity (SW1990 [35]): 3.62%
- Activity (SW1990 [36]): 9%
- inhibition (SW1990 [37]): Active
- Activity (SW1990 [38]): Active
- Activity (SW1990 [39]): Active
- inhibition (SW1990 [40]): Active
- Activity (SW1990 [41]): 74.9%
